Experimental data: patent publication US11912701B2, “Protein kinase inhibitors for promoting liver regeneration or reducing or preventing hepatocyte death” (HEPAREGENIX GMBH, priority 2018, dated 2024)

Experiments:
[1] = target: T1, JNK1 (Homo sapiens, UniProt P45983); test: 33PanQinase enzyme assay, JNK1; type: biochemical; parameters: purchased ProQinase GmbH, Freiburg, Germany (33PanQinase Assay Service); conditions: ratio IC50(JNK1)/IC50(MKK4)
Procedure, shortened: (§1)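 Off-target selectivity is the ratio IC50(off-target)/IC50(MKK4), with IC50 values from least-squares fitting and single-point data as % residual activity. Reactions of enzyme/substrate mix, ATP and compound ran 60 min at 30° C before H3PO4 stop; ^33P incorporation read on a scintillation counter.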
Target sequence in this assay (P45983 whole entry): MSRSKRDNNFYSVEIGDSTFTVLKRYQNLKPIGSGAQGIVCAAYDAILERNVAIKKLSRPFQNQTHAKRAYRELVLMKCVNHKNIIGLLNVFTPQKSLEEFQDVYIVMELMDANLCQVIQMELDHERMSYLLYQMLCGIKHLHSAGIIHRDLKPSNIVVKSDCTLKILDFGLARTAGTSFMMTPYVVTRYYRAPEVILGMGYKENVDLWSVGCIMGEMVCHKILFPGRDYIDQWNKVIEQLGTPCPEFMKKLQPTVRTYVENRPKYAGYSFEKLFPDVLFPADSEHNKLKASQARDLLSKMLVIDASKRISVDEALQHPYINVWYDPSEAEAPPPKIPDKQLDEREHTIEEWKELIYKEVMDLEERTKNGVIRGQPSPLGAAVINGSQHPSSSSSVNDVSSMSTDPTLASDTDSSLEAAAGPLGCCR

[2] = target: T2, MKK4 (Homo sapiens, UniProt P45985); test: 33PanQinase enzyme assay, MKK4; type: biochemical; conditions: assay 'IC50'; read-out: Potency MKK4 (IC50)
T2 construct: purchased ProQinase GmbH, Freiburg, Germany (33PanQinase Assay Service)
T2 sequence (P45985 1-399): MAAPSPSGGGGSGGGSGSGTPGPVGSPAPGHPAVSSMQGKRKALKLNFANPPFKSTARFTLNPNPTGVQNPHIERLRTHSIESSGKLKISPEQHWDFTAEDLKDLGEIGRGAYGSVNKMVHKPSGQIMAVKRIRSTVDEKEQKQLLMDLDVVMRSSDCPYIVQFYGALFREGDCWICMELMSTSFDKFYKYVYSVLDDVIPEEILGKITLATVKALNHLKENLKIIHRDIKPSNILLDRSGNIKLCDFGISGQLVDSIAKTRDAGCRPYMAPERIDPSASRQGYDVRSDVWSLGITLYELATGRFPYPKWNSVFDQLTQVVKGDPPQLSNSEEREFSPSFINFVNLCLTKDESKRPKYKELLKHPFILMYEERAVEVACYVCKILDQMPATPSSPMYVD
Procedure, shortened: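 Inhibition measured as 33Pi transfer to substrate after a 60-min, 30 °C reaction, acid-stopped and scintillation-counted.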

[3] = target: T1, JNK1; test: KINOMEscan competition binding assay, JNK1; parameters: M1/Q384; host or cells: HEK-293; conditions: ratio PoC (off-target)/PoC (MKK4)
Procedure, shortened: (§2)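 DNA-tagged kinases expressed in HEK-293 cells compete between immobilized ligand on blocked beads and test compound at 100 nM; kinase retained on beads quantified by qPCR of the tag.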
Target sequence in this assay (P45983 1-384 isoform P45983-2): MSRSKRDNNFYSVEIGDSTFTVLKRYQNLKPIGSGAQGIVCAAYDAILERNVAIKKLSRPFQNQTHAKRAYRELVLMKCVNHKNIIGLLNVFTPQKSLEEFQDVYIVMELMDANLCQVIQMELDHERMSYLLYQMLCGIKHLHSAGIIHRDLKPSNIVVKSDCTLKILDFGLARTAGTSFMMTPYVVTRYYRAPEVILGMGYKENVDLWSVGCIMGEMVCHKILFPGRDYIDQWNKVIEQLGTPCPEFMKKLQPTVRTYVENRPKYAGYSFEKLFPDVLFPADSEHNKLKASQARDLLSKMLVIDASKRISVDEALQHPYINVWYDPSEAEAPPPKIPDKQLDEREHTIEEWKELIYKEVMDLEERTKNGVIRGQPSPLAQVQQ

[4] = target: T3, BRaf (Homo sapiens, UniProt P15056); test: 33PanQinase enzyme assay, BRaf; type: biochemical; conditions: ratio IC50(BRaf)/IC50(MKK4)
T3 construct: purchased ProQinase GmbH, Freiburg, Germany (33PanQinase Assay Service)
Procedure, shortened: as §1

[5] = target: T4, MKK7 (Homo sapiens, UniProt O14733); test: KINOMEscan competition binding assay, MKK7; parameters: M1/R419; host or cells: HEK-293; conditions: ratio PoC (off-target)/PoC (MKK4)
T4 sequence (O14733 1-419): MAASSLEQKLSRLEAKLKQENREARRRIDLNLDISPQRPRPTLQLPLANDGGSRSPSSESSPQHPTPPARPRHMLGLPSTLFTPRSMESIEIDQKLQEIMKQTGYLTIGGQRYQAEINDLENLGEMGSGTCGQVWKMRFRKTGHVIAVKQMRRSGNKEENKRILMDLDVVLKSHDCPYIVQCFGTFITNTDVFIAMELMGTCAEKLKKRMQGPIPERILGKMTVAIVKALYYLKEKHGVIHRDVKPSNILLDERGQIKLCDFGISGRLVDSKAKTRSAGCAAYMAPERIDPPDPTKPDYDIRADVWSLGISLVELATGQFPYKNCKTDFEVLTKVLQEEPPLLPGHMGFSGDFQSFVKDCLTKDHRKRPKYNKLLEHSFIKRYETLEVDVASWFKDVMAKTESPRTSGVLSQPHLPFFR
Procedure, shortened: as §2

[6] = target: T5, MKK4 (Homo sapiens, UniProt P45985); test: KINOMEscan competition binding assay, MKK4; conditions: residual percent of control binding (PoC) at 100 nM
T5 construct: S84/D399; host or cells: HEK-293
T5 sequence (P45985 84-399): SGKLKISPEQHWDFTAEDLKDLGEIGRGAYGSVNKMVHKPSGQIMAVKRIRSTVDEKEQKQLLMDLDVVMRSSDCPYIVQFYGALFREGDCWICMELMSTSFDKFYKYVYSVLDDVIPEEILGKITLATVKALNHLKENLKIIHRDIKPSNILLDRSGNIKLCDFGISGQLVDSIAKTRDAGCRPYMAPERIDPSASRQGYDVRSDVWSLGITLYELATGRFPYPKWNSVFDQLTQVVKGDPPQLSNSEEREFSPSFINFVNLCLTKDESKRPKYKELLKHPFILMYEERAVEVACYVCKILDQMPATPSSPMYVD
Procedure, shortened: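 Tested at 100 nM and reported as percent of control binding (PoC). MKK4 was produced in HEK-293 cells and DNA-tagged. Displacement from ligand-coated, blocked beads was read by qPCR of eluted kinase.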

[7] = target: T3, BRaf; test: KINOMEscan competition binding assay, BRaf; conditions: ratio PoC (off-target)/PoC (MKK4)
Procedure, shortened: as §2

[8] = target: T4, MKK7; test: 33PanQinase enzyme assay, MKK7; type: biochemical; parameters: purchased ProQinase GmbH, Freiburg, Germany (33PanQinase Assay Service); conditions: ratio IC50(MKK7)/IC50(MKK4)
Procedure, shortened: as §1

T3 sequence (P15056 whole entry, species assumed): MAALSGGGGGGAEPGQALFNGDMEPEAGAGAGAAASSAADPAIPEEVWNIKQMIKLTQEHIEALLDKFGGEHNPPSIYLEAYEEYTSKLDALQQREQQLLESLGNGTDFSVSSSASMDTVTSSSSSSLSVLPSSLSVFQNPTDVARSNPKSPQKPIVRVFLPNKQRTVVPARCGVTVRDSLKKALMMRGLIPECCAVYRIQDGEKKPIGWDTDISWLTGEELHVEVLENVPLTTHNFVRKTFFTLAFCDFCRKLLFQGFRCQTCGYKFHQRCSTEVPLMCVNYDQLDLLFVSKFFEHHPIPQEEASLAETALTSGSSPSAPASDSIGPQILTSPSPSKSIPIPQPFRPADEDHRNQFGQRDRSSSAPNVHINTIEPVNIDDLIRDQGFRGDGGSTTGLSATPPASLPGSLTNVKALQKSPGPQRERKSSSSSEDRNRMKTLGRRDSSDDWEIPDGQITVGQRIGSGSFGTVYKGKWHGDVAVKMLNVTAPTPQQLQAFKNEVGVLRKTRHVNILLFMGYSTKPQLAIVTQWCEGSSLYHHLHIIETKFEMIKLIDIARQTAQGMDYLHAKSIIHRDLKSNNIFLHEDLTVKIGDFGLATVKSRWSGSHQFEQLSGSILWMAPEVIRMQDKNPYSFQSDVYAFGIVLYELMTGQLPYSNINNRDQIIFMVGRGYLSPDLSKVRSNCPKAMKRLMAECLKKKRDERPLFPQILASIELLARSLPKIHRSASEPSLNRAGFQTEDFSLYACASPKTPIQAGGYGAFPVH

SMILES	Selectivity JNK1, IC50(off-target)/IC50(MKK4) [1]	IC50 [2] [nM]	selectivity based on % Ctrl @100 nM vs. JNK1 [3]	Selectivity Braf, IC50(off-target)/IC50(MKK4) [4]	selectivity based on % Ctrl @100 nM vs. MKK7 [5]	MKK4 [% Ctrl @ 100 nM [6]	selectivity based on % Ctrl @100 nM vs. Braf [7]	Selectivity IVIKK7, IC50(off-target)/IC50(MKK4) [8]
CCCS(=O)(=O)Nc1ccc(F)c(C(=O)c2c[nH]c3ncc(-c4ccc(C5CCC5)cc4)cc23)c1F [Example 82, N-(3-(5-(4-cyclobutylphenyl)-1H-pyrrolo[2,3-b]pyridine-3-carbonyl)-2,4-difluorophenyl)propane-1-sulfonamide]	+ (10 ≥ IC50(off-target)/IC50(MKK4) > 3)	100 to 1000	+++ (Ratio > 100)	◯ (3 ≥ IC50(off-target)/IC50(MKK4))	+++ (Ratio > 100)	+++ (PoC < 1)	+++ (Ratio > 100)	+++ (IC50(off-target)/IC50(MKK4) > 100)
COc1ccc(-c2cnc3[nH]cc(C(=O)c4cccc(NS(=O)(=O)Cc5ccccc5)c4F)c3c2)c(Cl)c1 [Example 125, N-(3-(5-(2-chloro-4-methoxyphenyl)-1H-pyrrolo[2,3-b]pyridine-3-carbonyl)-2-fluorophenyl)-1-phenylmethanesulfonamide]	+ (10 ≥ IC50(off-target)/IC50(MKK4) > 3)	100 to 1000	++ (100 ≥ ratio > 10)	+++ (IC50(off-target)/IC50(MKK4) > 100)	++ (100 ≥ ratio > 10)	++ (1 ≤ PoC < 3)	++ (100 ≥ ratio > 10)	+++ (IC50(off-target)/IC50(MKK4) > 100)
O=C(c1ccc(F)c(NS(=O)(=O)CCC(F)(F)F)c1F)c1c[nH]c2ncc(-c3cccnc3)cc12 [Example 156, N-(2,6-difluoro-3-(5-(pyridin-3-yl)-1H-pyrrolo[2,3-b]pyridine-3-carbonyl)phenyl)-3,3,3-trifluoropropane-1-sulfonamide]	+++ (IC50(off-target)/IC50(MKK4) > 100)	< 100	+++ (Ratio > 100)	++ (100 ≥ IC50(off-target)/IC50(MKK4) > 10)	+++ (Ratio > 100)	+++ (PoC < 1)	+++ (Ratio > 100)	+++ (IC50(off-target)/IC50(MKK4) > 100)
O=C(c1ccc(F)c(NS(=O)(=O)CCC(F)(F)F)c1F)c1c[nH]c2ncc(-c3cnc(N4CCCCC4)nc3)cc12 [Example 181, N-(2,6-difluoro-3-(5-(2-(piperidin-1-yl)pyrimidin-5-yl)-1H-pyrrolo[2,3-b]pyridine-3-carbonyl)phenyl)-3,3,3-trifluoropropane-1-sulfonamide]	++ (100 ≥ IC50(off-target)/IC50(MKK4) > 10)	100 to 1000	+++ (Ratio > 100)	+++ (IC50(off-target)/IC50(MKK4) > 100)	+++ (Ratio > 100)	+++ (PoC < 1)	+++ (Ratio > 100)	+++ (IC50(off-target)/IC50(MKK4) > 100)
CCCS(=O)(=O)Nc1c(F)ccc(C(=O)c2c[nH]c3ncc(-c4ccc(C(F)(F)F)nc4)cc23)c1F [Example 230, N-(2,6-difluoro-3-(5-(6-(trifluoromethyl)pyridin-3-yl)-1H-pyrrolo[2,3-b]pyridine-3-carbonyl)phenyl)propane-1-sulfonamide]	+++ (IC50(off-target)/IC50(MKK4) > 100)	< 100	+++ (Ratio > 100)	+++ (IC50(off-target)/IC50(MKK4) > 100)	+++ (Ratio > 100)	+++ (PoC < 1)	+++ (Ratio > 100)	+++ (IC50(off-target)/IC50(MKK4) > 100)
CCCS(=O)(=O)Nc1c(F)ccc(C(=O)c2c[nH]c3ncc(-c4ccc(C5CC5)nc4)cc23)c1F [Example 159, N-(3-(5-(6-cyclopropylpyridin-3-yl)-1H-pyrrolo[2,3-b]pyridine-3-carbonyl)-2,6-difluorophenyl)propane-1-sulfonamide]	+++ (IC50(off-target)/IC50(MKK4) > 100)	< 100	+++ (Ratio > 100)	++ (100 ≥ IC50(off-target)/IC50(MKK4) > 10)	+++ (Ratio > 100)	+++ (PoC < 1)	+++ (Ratio > 100)	+++ (IC50(off-target)/IC50(MKK4) > 100)
CCCS(=O)(=O)Nc1ccc(F)c(C(=O)c2c[nH]c3ncc(-c4ccc(S(C)(=O)=O)nc4)cc23)c1F [Example 77, N-(2,4-difluoro-3-(5-(6-(methylsulfonyl)pyridin-3-yl)-1H-pyrrolo[2,3-b]pyridine-3-carbonyl)phenyl)propane-1-sulfonamide]	+ (10 ≥ IC50(off-target)/IC50(MKK4) > 3)	100 to 1000	+++ (Ratio > 100)	◯ (3 ≥ IC50(off-target)/IC50(MKK4))	+++ (Ratio > 100)	+++ (PoC < 1)	◯ (3 ≥ Ratio)	+++ (IC50(off-target)/IC50(MKK4) > 100)
CCCS(=O)(=O)Nc1ccc(F)c(C(=O)c2c[nH]c3ncc(-c4ccc(N)nc4)cc23)c1F [Example 50]	◯ (3 ≥ IC50(off-target)/IC50(MKK4))	100 to 1000	+++ (Ratio > 100)	◯ (3 ≥ IC50(off-target)/IC50(MKK4))	+++ (Ratio > 100)	+++ (PoC < 1)	◯ (3 ≥ Ratio)	+++ (IC50(off-target)/IC50(MKK4) > 100)
CCCS(=O)(=O)Nc1ccc(F)c(C(=O)c2c[nH]c3ncc(-c4ccccc4OC)cc23)c1F [Example 102, N-(2,4-difluoro-3-(5-(2-methoxyphenyl)-1H-pyrrolo[2,3-b]pyridine-3-carbonyl)phenyl)propane-1-sulfonamide]	+ (10 ≥ IC50(off-target)/IC50(MKK4) > 3)	100 to 1000	++ (100 ≥ ratio > 10)	◯ (3 ≥ IC50(off-target)/IC50(MKK4))	++ (100 ≥ ratio > 10)	++ (1 ≤ PoC < 3)	++ (100 ≥ ratio > 10)	+++ (IC50(off-target)/IC50(MKK4) > 100)
